{
  "source": "patent US6683166B2",
  "about": "“Modified internucleoside linkages (ii)” (ISIS Pharmaceuticals, Inc., priority 1992, dated 2004)",
  "format_in_all_cases": "binding",
  "key": {"[1]": {"system": "Single Stranded Target (RNA)", "experiment": "Thermal denaturation Tm, DNA-RNA-duplex", "description": "(§1) RNA and DNA duplex and DNA-triplex experiments utilizing certain desirable modified internucleoside linkages of this invention were conducted to determine those linkages' effect on the Tm values of the resulting oligonucleotides.\n(§2) These experiments were carried out in a buffered solution (140 mM KCl, 5 mM Na2HPO4, and 1 mM MgCl2) at pH=6.6 (except for the 2′-5′ carbamate which was buffered at pH=7.0) according to the following protocol: 0.15 ODs of the target RNA/DNA was combined with 0.1 OD of the oligomer being assayed in a sterile eppendorf tube and dried. To this mixture was added 300 λ of Tm buffer and the solution was stirred. Tm values were then determined by a first derivative plot of absorbance versus temperature. Thermal denaturation analysis was carried out-with a heating rate of 0.25° C./min and absorbance was monitored at 260 nm.\n(§3) The test oligomers that were synthesized for analysis were of the following sequence:\n(§4) 5′-TC^mTC^mTC^mTC^mTC^mT^TT^TT-3′\n(§5) where T=thymidine, C^m=5-methyl-2′-deoxycytidine, and T^T=a thymidine-thymidine dimer with an experimental linkage of the structure detailed in the table below. All other linkages were phosphodiester."}, "[2]": {"system": "Target Duplex Sequence (DNA) 5′ AGAGAGAGAGAAAAA 3′", "experiment": "Thermal denaturation Tm, DNA-Triplex", "description": "as §1, §2, §3, §4, §5"}, "[3]": {"system": "Single Stranded Target (DNA)", "experiment": "Thermal denaturation Tm, DNA-duplex", "description": "as §1, §2, §3, §4, §5"}, "[4]": {"conditions": "Tm change per substituted linkage vs control of the same group"}},
  "data": [
    {"substance": "5′-2′ thioformacetal: Test oligomer 5′-TCmTCmTCmTCmTCmT^TT^TT-3′, the two T^T dimers having a 5′-2′ thioformacetal linkage; other linkages phosphodiester", "values": [
      {"measurement": "DNA-RNA-duplex Tm", "setting": "[1]; 140 mM KCl, 5 mM Na2HPO4, 1 mM MgCl2, pH 6.6 (2′-5′ carbamate buffered at pH 7.0)", "result": 58.5},
      {"measurement": "DNA-RNA-duplex ° C./subst", "setting": "[1]; [4]", "result": "−1.5", "unit": "° C./subst"},
      {"measurement": "DNA-Triplex Tm", "setting": "[2]; 140 mM KCl, 5 mM Na2HPO4, 1 mM MgCl2, pH 6.6", "result": 39.0},
      {"measurement": "DNA-Triplex ° C./subst", "setting": "[2]; pH 6.6, Tm change per substituted linkage vs control", "result": 0, "unit": "° C./subst"},
      {"measurement": "DNA-duplex Tm", "setting": "[3]; 140 mM KCl, 5 mM Na2HPO4, 1 mM MgCl2, pH 6.6 (2′-5′ carbamate buffered at pH 7.0), first derivative of A260 vs temperature", "result": 53.0},
      {"measurement": "DNA-duplex ° C./subst", "setting": "[3]; [4]", "result": "+1.8 ° C./subst"}
    ]}
  ]
}
